Calls of active or inactive are those of the source. The rule behind the calls is not given here.
Legend:
[1] = target: Receptor-type tyrosine-protein kinase FLT3 (Homo sapiens, UniProt P36888, ITD); assay: biochemical; format: cell-based, Sf9
[2] = target: High affinity nerve growth factor receptor (Homo sapiens) (UniProt P04629); assay: Binding affinity to human TrkA (441 to 760 residues) expressed in baculovirus-infected Sf21 cells assessed as residual activity using poly(Glu:Tyr) as substrate in presence of ATP and [gamma-33P]ATP incubated for 30 mins by MRC Protein Phoshorylation and Ubiquitylation Unit based Express Panel assay
Chain of High affinity nerve growth factor receptor (Homo sapiens) (P04629 33-796 limits assumed): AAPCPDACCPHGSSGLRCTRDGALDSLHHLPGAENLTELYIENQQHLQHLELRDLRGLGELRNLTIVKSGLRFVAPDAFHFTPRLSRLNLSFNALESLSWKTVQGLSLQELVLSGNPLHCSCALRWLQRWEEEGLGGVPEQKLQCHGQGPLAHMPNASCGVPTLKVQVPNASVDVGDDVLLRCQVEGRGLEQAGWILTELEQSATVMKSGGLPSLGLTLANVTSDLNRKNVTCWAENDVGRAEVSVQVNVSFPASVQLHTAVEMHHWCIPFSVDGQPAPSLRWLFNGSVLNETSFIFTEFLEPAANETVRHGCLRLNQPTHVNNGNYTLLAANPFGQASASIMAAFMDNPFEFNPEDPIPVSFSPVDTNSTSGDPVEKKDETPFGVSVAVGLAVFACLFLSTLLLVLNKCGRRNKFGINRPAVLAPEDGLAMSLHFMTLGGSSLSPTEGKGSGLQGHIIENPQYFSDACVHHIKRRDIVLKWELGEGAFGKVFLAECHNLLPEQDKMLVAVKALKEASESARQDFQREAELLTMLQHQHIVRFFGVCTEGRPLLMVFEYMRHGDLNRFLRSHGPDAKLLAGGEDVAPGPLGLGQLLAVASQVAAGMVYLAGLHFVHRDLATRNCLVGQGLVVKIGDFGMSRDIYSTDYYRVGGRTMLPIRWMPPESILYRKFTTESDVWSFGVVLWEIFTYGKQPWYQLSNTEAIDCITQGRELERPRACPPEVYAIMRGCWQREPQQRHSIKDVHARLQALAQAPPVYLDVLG

MV4-11 [3] = assay: Induction of cell cycle arrest in human MV4-11 cells assessed as proportion of cells at G2/M phase at 3.2 nM incubated for 24 hrs by PI staining based flow cytometry (reference value: 10%); format: functional
MV4-11 [4] = assay: Induction of cell cycle arrest in human MV4-11 cells assessed as proportion of cells at subG1 phase at 3.2 nM incubated for 24 hrs by PI staining based flow cytometry (reference value: 10.44%); format: functional
MV4-11 [5] = assay: Induction of cell cycle arrest in human MV4-11 cells assessed as proportion of cells at subG1 phase at 16 nM incubated for 24 hrs by PI staining based flow cytometry (reference value: 10.44%); format: functional
MV4-11 [6] = assay: Induction of cell cycle arrest in human MV4-11 cells assessed as proportion of cells at G2/M phase at 80 nM incubated for 24 hrs by PI staining based flow cytometry (reference value: 10%); format: functional
MV4-11 [7] = format: functional, Homo sapiens; conditions: dose 400 nM; time 24 hrs
MV4-11 [8] = assay: Induction of cell cycle arrest in human MV4-11 cells assessed as proportion of cells at S phase at 400 nM incubated for 24 hrs by PI staining based flow cytometry (reference value: 25.97%); format: functional
MV4-11 [9] = assay: Induction of cell cycle arrest in human MV4-11 cells assessed as proportion of cells at subG1 phase at 400 nM incubated for 24 hrs by PI staining based flow cytometry (reference value: 10.44%); format: functional
HL-60 [10] = assay: Induction of cell cycle arrest in human HL-60 cells assessed as proportion of cells at G1 phase at 3.2 nM incubated for 24 hrs by PI staining based flow cytometry (reference value: 49.36%); format: functional
HL-60 [11] = assay: Induction of cell cycle arrest in human HL-60 cells assessed as proportion of cells at S phase at 16 nM incubated for 24 hrs by PI staining based flow cytometry (reference value: 36.12%); format: functional
HL-60 [12] = assay: Induction of cell cycle arrest in human HL-60 cells assessed as proportion of cells at subG1 phase at 16 nM incubated for 24 hrs by PI staining based flow cytometry (reference value: 6.94%); format: functional
HL-60 [13] = assay: Induction of cell cycle arrest in human HL-60 cells assessed as proportion of cells at S phase at 80 nM incubated for 24 hrs by PI staining based flow cytometry (reference value: 36.12%); format: functional
HL-60 [14] = assay: Induction of cell cycle arrest in human HL-60 cells assessed as proportion of cells at S phase at 400 nM incubated for 24 hrs by PI staining based flow cytometry (reference value: 36.12%); format: functional
HL-60 [15] = assay: Induction of cell cycle arrest in human HL-60 cells assessed as proportion of cells at subG1 phase at 400 nM incubated for 24 hrs by PI staining based flow cytometry (reference value: 6.94%); format: functional
HL-60 [16] = assay: Induction of cell cycle arrest in human HL-60 cells assessed as proportion of cells at G1 phase at 2000 nM incubated for 24 hrs by PI staining based flow cytometry (reference value: 49.36%); format: functional
[17] = target: Receptor-type tyrosine-protein kinase FLT3 (Homo sapiens) (UniProt P36888); assay: Inhibition of FLT3 in human MV4-11 cells assessed as inhibition of FLT3 autophosphorylation at Tyr589/591 residues incubated for 1 hr by immunoblot analysis; format: cell-based; conditions: dose lower […], dose upper 2000.0 nM
[18] = system: Receptor-type tyrosine-protein kinase FLT3 (Homo sapiens), P36888 [UNDEFINED MUTATION]; assay: Inhibition of FLT3-ITD mutant (unknown origin) expressed in mouse BaF3 cells assessed as inhibition of FLT3 autophosphorylation at Tyr589/591 residues at 16 to 2000 nM incubated for 2 hrs by immunoblot analysis; format: cell-based; conditions: dose lower […], dose upper 2000.0 nM
[19] = system: Receptor-type tyrosine-protein kinase FLT3 (Homo sapiens), P36888 [UNDEFINED MUTATION]; format: cell-based; conditions: BaF3, dose lower […], dose upper 2000.0 nM, time 2.0 hrs
[20] = target: T1, Receptor-type tyrosine-protein kinase FLT3 (Homo sapiens, UniProt P36888)
T1 sequence (P36888 whole entry): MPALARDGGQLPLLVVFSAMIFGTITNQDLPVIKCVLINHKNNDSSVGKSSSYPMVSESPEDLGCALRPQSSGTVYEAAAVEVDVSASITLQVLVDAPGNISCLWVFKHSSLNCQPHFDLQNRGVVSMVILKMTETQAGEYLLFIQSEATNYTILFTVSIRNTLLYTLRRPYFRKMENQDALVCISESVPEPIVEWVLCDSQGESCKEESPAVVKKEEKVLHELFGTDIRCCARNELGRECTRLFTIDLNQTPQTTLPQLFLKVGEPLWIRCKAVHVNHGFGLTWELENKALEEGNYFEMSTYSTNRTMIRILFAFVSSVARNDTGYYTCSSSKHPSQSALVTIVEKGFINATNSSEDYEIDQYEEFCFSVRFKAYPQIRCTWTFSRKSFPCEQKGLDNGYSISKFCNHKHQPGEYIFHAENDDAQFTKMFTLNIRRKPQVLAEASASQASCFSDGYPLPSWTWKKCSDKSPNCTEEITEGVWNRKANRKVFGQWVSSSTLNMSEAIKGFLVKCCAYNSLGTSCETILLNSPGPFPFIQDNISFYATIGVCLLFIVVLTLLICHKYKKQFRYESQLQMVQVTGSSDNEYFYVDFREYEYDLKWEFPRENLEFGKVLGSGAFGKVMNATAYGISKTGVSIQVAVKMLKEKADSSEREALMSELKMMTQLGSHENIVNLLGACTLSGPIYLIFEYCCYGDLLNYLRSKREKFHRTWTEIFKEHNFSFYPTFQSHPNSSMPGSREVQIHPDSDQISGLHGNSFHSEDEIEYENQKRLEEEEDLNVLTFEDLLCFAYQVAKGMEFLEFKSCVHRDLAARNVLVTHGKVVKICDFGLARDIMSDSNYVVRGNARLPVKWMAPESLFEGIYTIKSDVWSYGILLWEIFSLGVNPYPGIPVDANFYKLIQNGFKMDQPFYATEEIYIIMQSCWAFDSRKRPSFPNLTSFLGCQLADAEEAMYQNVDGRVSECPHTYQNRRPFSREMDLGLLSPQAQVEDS
Description: Inhibition of NanoLuc-fused FLT3 (unknown origin) transfected in HEK293 cells incubated for 2 hrs by NanoBRET target engagement assay

K562 = assay: cells; conditions: Homo sapiens, K562, 72 h
Description: Antiproliferative activity against FLT3-independent human K562 cells assessed as inhibition of cell growth incubated for 72 hrs by resazurin dye based fluorescence analysis

HL-60 [21] = assay: cells; conditions: Homo sapiens, HL-60, 72 h
Description: Antiproliferative activity against human HL-60 cells assessed as inhibition of cell growth incubated for 72 hrs by resazurin dye based fluorescence analysis

Kasumi 1 = assay: cells; conditions: Homo sapiens, Kasumi 1, 72 h
Description: Antiproliferative activity against human Kasumi 1 cells harboring KIT N822K mutant assessed as inhibition of cell growth incubated for 72 hrs by resazurin dye based fluorescence analysis

BaF3 [22] = assay: cells; conditions: Mus musculus, BaF3, 72 h
Description: Antiproliferative activity against mouse BaF3 cells assessed as inhibition of cell growth incubated for 72 hrs by resazurin dye based fluorescence analysis

BaF3 [23] = assay: cells; conditions: Mus musculus, BaF3, 72 h; remark: listed apart in the source

In the case of `COc1ccc(NC(=O)Nc2nnc(Sc3ncnc4oc(-c5ccccc5)cc34)s2)cc1`, the IC50 [1] is reported as 31 nM, the Activity [2] is reported as < 50% and the Activity (MV4-11 [3]) is reported as 6.22%. It also gave an Activity (MV4-11 [4]) of 12.84%, an Activity (MV4-11 [5]) of 16.42% and an Activity (MV4-11 [6]) of 1.23%. The Activity (MV4-11 [7]) was 94.09%, the Activity (MV4-11 [8]) was 4.48% and the Activity (MV4-11 [9]) was 32.95%. For the same molecule, the Activity (HL-60 [10]) was 49.95%, the Activity (HL-60 [11]) was 37.68% and the Activity (HL-60 [12]) was 7.48%. For the same molecule, the Activity (HL-60 [13]) was 37.03%, the Activity (HL-60 [14]) was 35.91% and the Activity (HL-60 [15]) was 7.9%. The Activity (HL-60 [16]) was 48.8%, the inhibition [17] was “Dose-dependent-effect” and the inhibition [18] was “Active”. For the same molecule, the inhibition [19] was “Active”, the IC50 [20] was 174 nM and the GI50 (K562) was > 10000 nM. For the same molecule, the GI50 (HL-60 [21]) was > 10000 nM, the GI50 (Kasumi 1) was 3060 nM and the GI50 (BaF3 [22]) was > 10000 nM. It also gave a GI50 (BaF3 [23]) of 277 nM.

Source: ChEMBL document CHEMBL6092193, “Identification of furo[2,3-d]pyrimidin-4-ylsulfanyl-1,3,4-thiadiazole derivatives as novel FLT3-ITD inhibitors” (Eur J Med Chem, 2024)
